Square brackets hold non-standard residues; d marks the D form. Peptide text beside a SMILES is read from it. * marks the point of attachment. Ala(6-iPr-benzothiazol-2-yl) = CC(C)c1ccc2nc(C[C@H](N)C(=O)O)sc2c1; 2Nal = N[C@@H](Cc1ccc2ccccc2c1)C(=O)O; Gly(4-THP) = N[C@H](C(=O)O)C1CCOCC1; Gly(cPent) = N[C@H](C(=O)O)C1CCCC1; Cha = N[C@@H](CC1CCCCC1)C(=O)O; Lac = C[C@H](O)C(=O)O; Propionyl = CCC(=O)* Bounds are passed on as bounds.

In one assay the target is DCN1 (Homo sapiens (Human), UniProt Q96GG9). Briefly: Competitive FP binding assay. To be noted: bounds given in μM; read-out: Binding affinity to DCN1 (IC50). As to the method: Competitive FP Binding Assay
DCN1, sequence (Q96GG9 58-259): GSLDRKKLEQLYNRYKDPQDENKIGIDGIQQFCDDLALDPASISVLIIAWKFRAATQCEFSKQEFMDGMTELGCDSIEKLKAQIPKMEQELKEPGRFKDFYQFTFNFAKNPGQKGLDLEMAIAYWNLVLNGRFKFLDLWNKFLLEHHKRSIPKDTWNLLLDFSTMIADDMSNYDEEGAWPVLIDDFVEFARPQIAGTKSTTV
The Fluorescence Polarization (FP) competitive binding assays were performed to accurately determine the binding affinities of our DCN1 inhibitors. […] Serial dilutions of proteins were mixed with 46 to a final volume of 200 μl in the assay buffer (100 mM phosphate buffer, pH=6.5, with 0.02% Tween-20 and 2% DMSO). Final probe concentration was 5 nM for both assays. Plates were incubated at room temperature for 30 minutes with gentle shaking to assure equilibrium.
Pure proteins were derived from the same expression and purification protocols. Plasmids were transformed into Rosetta2 cells, the cells were grown in Terrific Broth at 37° C. to an O.D.600>1.0 and induced with 0.4 mM Isopropyl (3-D-1-thiogalactopyranoside overnight at 20° C. The pelleted cells were resuspended in lysis buffer containing 25 mM Tris-HCl, pH 7.5, 200 mM NaCl and protease inhibitors, sonicated and centrifuged at 34,000×g for 45 minutes to remove debris. Cleared lysate was incubated with Ni-NTA resin (Qiagen) prewashed with lysis buffer, for 1 hr at 4° C. The matrix was loaded into a column then washed with 25 mM Tris-HCl, pH 7.5, 200 mM NaCl and 10 mM imidazole. Protein was eluted with 25 mM Tris-HCl, pH 7.5, 200 mM NaCl and 300 mM imidazole, concentrated and applied to a Superdex 75 (GE Healthcare) column pre-equilibrated with 25 mM Tris pH 7.5, 200 mM NaCl and 1 mM DTT. For DCN2-5, the N-terminal His6 tag was removed prior to gel filtration. Tag removal was achieved through incubation with TEV protease during overnight dialysis against 25 mM Tris pH 7.5, 200 mM NaCl and 1 mM DTT and a second Ni-NTA column. DCN2-5 proteins were stored at −80° C. in 1 mg/mL fractions containing 5% glycerol. The uncleaved DCN1 protein was stored at −80° C. without glycerol.
Usually IC50 stands for the concentration at which inhibition is half-maximal. As to `CC[C@H](C)[C@H](NC(=O)[C@H](Cc1ccc2ccccc2c1)NC(=O)[C@H](C)O)C(=O)N[C@@H](CCCCN)C(=O)N[C@@H](CC(C)C)C(N)=O` [Example 168] (H-[Lac][2Nal]IKL-NH2), the IC50 is greater than 10 µM.

Regarding `CCC(=O)N[C@@H](Cc1ccc(C)cn1)C(=O)N[C@H](C(=O)N[C@@H](CCCCN)C(=O)NC(c1ccccc1)c1ccccc1)[C@@H](C)CC` [Example 135], the IC50 was greater than 10 µM.

As for `CCC(=O)N[C@@H](Cc1nc2ccc(C)cc2s1)C(=O)N[C@H](C(=O)N[C@@H](CCCCN)C(=O)N[C@@H]1CCOc2ccccc21)C1CCNCC1` [Example 180], the IC50 is greater than 1 µM.

`CCC(=O)N[C@@H](Cc1ccc2ccccc2c1)C(=O)N[C@H](C(=O)N[C@@H](CCCCN)C(=O)N[C@H]1CNCc2ccccc21)C1CCCC1` [Example 159]: the 50% inhibitory concentration (IC50) was greater than 3 µM.

Consider `CCC(=O)N[C@@H](Cc1nc2ccc(Cl)cc2s1)C(=O)N[C@H](CN)Cc1ccccc1` (stereo in doubt) [Example 87], for which the IC50 is greater than 10 µM.

For the compound `CCC(=O)N[C@@H](Cc1ccc2ccccc2c1)C(=O)N[C@H](C(=O)N[C@@H](CCCCN)C(=O)NC1CCCCC1)[C@@H](C)CC` [Example 8], the IC50 is greater than 3 µM.

In the case of `CCC(=O)N[C@H](CNC(=O)C1(N)CCC(C)(C)CC1)Cc1nc2ccc(C(C)C)cc2s1` [Example 269], the IC50 was greater than 10 µM.

Turning to `CCC(=O)N[C@@H](Cc1nc2ccc(Cl)cc2s1)C(=O)NCc1ccccn1` [Example 251], the IC50 is greater than 5 µM.

Consider `CCC(=O)N[C@@H](Cc1nc2ccc(C(C)C)cc2s1)C(=O)N[C@H](CN)Cc1ccccc1` (stereo in doubt) [Example 89], for which the IC50 is greater than 10 µM.

Still in this assay, the particulars now being: read-out: Binding affinity to DCN1 (IC50 (nM)).
For the compound `CCC(=O)N[C@@H](Cc1nc2ccc(CC)cc2s1)C(=O)N[C@H](C(=O)N[C@@H](CC1CCNCC1)C(=O)N[C@@H]1CCOc2ccccc21)C1CCOCC1` [Example 192], the IC50 came to 0.171 µM.

As for `CCC(=O)N[C@H](CNC(=O)[C@@H]1CCCCN1)Cc1nc2ccc(C(C)C)cc2s1` [Example 118], the IC50 stood at 3.11 µM.

For `CCC(=O)N[C@@H](Cc1nc2ccc(C(C)C)cc2s1)C(=O)NC(CSc1nncn1C)C1CCCCC1` (some centres unmarked) [Example 84], the IC50 stood at 0.242 µM.

In the case of `CCC(=O)N[C@@H](Cc1ccc2ccccc2c1)C(=O)N[C@H](C(=O)N[C@@H](CCCCN)C(=O)N[C@@H]1CCOc2cc(Cl)ccc21)C1CCCC1` [Example 165], the IC50 was determined as 0.122 µM.

Regarding `CCC(=O)N[C@@H](Cc1nc2ccc(C(C)C)cc2s1)C(=O)N[C@H](CNC(=O)c1cn(C)cn1)C1CCCCC1` [Example 66], the half-inhibitory concentration (IC50) came out at 0.299 µM.

Take `CCC(=O)N[C@@H](Cc1nc2ccc(C(C)C)cc2s1)C(=O)N[C@H](CN)[C@@H](C)CC` [Example 47, (S)—N-((2S,3S)-1-amino-3-methylpentan-2-yl)-3-(6-isopropylbenzo[d]thiazol-2-yl)-2-propionamidopropanamide]: the IC50 came out at 0.095 ± 0.0158 µM.

Turning to `CCC(=O)N[C@@H](Cc1cn2cc(Cl)ccc2n1)C(=O)N[C@H](C(=O)N[C@@H](CCCCN)C(=O)N[C@@H]1CCOc2ccccc21)C1CCOCC1` [Example 208], the IC50 came out at 0.157 µM.

Regarding `CCC(=O)N[C@@H](Cc1nc2ccc(Cl)cc2s1)C(=O)N[C@@H](Cc1ccncc1)C(=O)N[C@@H](CCCCN)C(=O)N[C@@H]1CCOc2ccccc21` [Example 203], the IC50 was determined as 0.282 µM.

For `CCC(=O)N[C@H](CNC(=O)C1(N)CCCCC1)Cc1nc2ccc(C(C)C)cc2s1` [Example 110], the IC50 came out at 1.91 µM.

With `CCC(=O)N[C@@H](Cc1nc2ccc(Cl)cc2s1)C(=O)N[C@H](C(=O)NCCCCCN(C)C)C1CCCC1` [Example 224], the IC50 turned out to be 0.575 µM.

For the compound `CCC(=O)N[C@@H](Cc1nc2ccc(Cl)cc2s1)C(=O)N[C@H](CN)C1CCCCC1` [Example 217], the IC50 is 0.346 µM.

As to `CCC(=O)N[C@@H](Cc1nc2ccc(C)cc2s1)C(=O)N[C@@H](CC1CCNCC1)C(=O)N[C@@H](CCCCN)C(=O)N[C@@H]1CCOc2ccccc21` [Example 178], the IC50 is 0.596 µM.

With `CCC(=O)N[C@@H](Cc1nc2ccc(C(C)C)cc2s1)C(=O)N[C@@H](CC1CCCCC1)C(=O)N[C@@H](CCCCN)C(=O)N[C@@H](CC(C)C)C(N)=O` [Example 289] (Propionyl-[Ala(6-iPr-benzothiazol-2-yl)][Cha]KL-NH2), the IC50 came to 0.138 µM.

Turning to `CCC(=O)N[C@@H](Cc1nc2ccc(C(C)C)cc2s1)C(=O)N[C@H](C(=O)N[C@@H](CCCCN)C(=O)N[C@@H]1CCOc2ccccc21)C1CCOCC1` [Example 206], the half-maximal inhibitory concentration (IC50) was determined as 0.0429 µM.

Consider `CCC(=O)N[C@@H](Cc1ccc2ccccc2c1)C(=O)N[C@H](C(=O)N[C@@H](CCCCN)C(=O)N[C@@H]1CCOc2c(Cl)cccc21)C1CCCC1` [Example 166], for which the IC50 is 0.193 µM.

`CCC(=O)N[C@@H](Cc1nc2ccc(C(C)C)cc2s1)C(=O)N[C@H](CNC(=O)c1nnc[nH]1)C1CCCCC1` [Example 65]: the IC50 amounted to 0.119 µM.

Consider `CCC(=O)N[C@@H](Cc1nc2ccc(OC)cc2o1)C(=O)N[C@H](C(=O)N[C@@H](CCCCN)C(=O)NC(c1ccccc1)c1ccccc1)[C@@H](C)CC` [Example 157], for which the IC50 worked out at 0.265 µM.

With `CCC(=O)N[C@@H](Cc1nc2ccc(CC)cc2s1)C(=O)N[C@H](C(=O)N[C@@H](CC1CCN(C)CC1)C(=O)N[C@@H]1CCOc2ccccc21)C1CCOCC1` [Example 193], the IC50 came out at 0.171 µM.

With `CCC(=O)N[C@@H](Cc1ccc2ccccc2c1)C(=O)N[C@H](C(=O)N[C@@H](CCCCN)C(=O)NC(c1ccc(Cl)cc1)c1ccc(Cl)cc1)[C@@H](C)CC` [Example 129], the IC50 worked out at 0.748 µM.

In the case of `CCC(=O)N[C@@H](Cc1nc2ccc(C(C)C)cc2s1)C(=O)N[C@H](CO)C1CCCCC1` [Example 81, (S)—N—((S)-1-cyclohexyl-2-hydroxyethyl)-3-(6-isopropylbenzo[d]thiazol-2-yl)-2-propionamidopropanamide], the half-inhibitory concentration (IC50) is 0.127 µM.

On to `CCC(=O)N[C@@H](Cc1nc2ccc(C(C)C)cc2s1)C(=O)N[C@H](CNC(=O)C1CN(C)C1)C1CCCCC1` [Example 69], for which the IC50 came to 0.0716 µM.

Turning to `CCC(=O)N[C@@H](Cc1nc2ccc(Cl)cc2s1)C(=O)N[C@H](C(=O)N[C@@H](CCCCN)C(=O)N[C@@H](c1ccccc1)c1cn(CCO)nn1)C1CCOCC1` [249 & 250], the 50% inhibitory concentration (IC50) came out at 0.12 µM.

With `CCC(=O)N[C@@H](Cc1nc2ccc(C(C)C)cc2s1)C(=O)N[C@H](COCCN1CCOCC1)C1CCCCC1` [Example 85], the IC50 was determined as 0.138 µM.

On to `CCC(=O)N[C@@H](Cc1nc2ccc(Cl)cc2s1)C(=O)N[C@H](C(=O)N[C@@H](CCCCN(C)C)C(=O)N[C@@H]1CCOc2ccccc21)C1CCCC1` [Example 34], for which the IC50 was 0.0179 µM.

Regarding `CCC(=O)N[C@@H](Cc1nc2ccc(C(C)C)cc2s1)C(=O)N[C@H](C(=O)N[C@@H](CCCCN)C(=O)N[C@@H](CC(C)C)C(N)=O)C1CCOCC1` [Example 2287] (Propionyl-[Ala(6-iPr-benzothiazol-2-yl)][Gly(4-THP)]KL-NH2), the IC50 amounted to 0.28 µM.

On to `CCC(=O)N[C@@H](Cc1nc2ccc(C(C)C)cc2s1)C(=O)N[C@H](CNC(=O)C1CCN(C2COC2)CC1)C1CCCCC1` [Example 63], for which the IC50 amounted to 0.0673 µM.

For `CCC(=O)N[C@@H](Cc1cn2cc(Cl)ccc2n1)C(=O)N[C@H](CN)Cc1ccccc1` [Example 108], the IC50 was determined as 4.17 µM.

`CCC(=O)N[C@@H](Cc1nc2ccc(C(C)C)cc2s1)C(=O)N[C@H](CNC(=O)C1CCN(CC)CC1)C1CCCCC1` [Example 70]: the IC50 was found to be 0.0451 µM.

As for `CCC(=O)N[C@@H](Cc1nc2ccc(Cl)cc2s1)C(=O)N[C@H](CNC(=O)[C@@H](C)CN1CCOCC1)Cc1ccccc1` [Example 227], the IC50 is 0.471 µM.

On to `CCC(=O)N[C@@H](Cc1nc2ccc(C(C)C)cc2s1)C(=O)N[C@H](C(=O)N[C@@H](CCCCN)C(=O)N[C@@H](CC(C)C)C(N)=O)C1CCCC1` [Example 285] (Propionyl-[Ala(6-iPr-benzothiazol-2-yl)][Gly(cPent)]KL-NH2), for which the IC50 is less than 0.1 µM.

For `CCC(=O)N[C@@H](Cc1ccc2ccccc2c1)C(=O)N[C@H](C(=O)N[C@@H](CCCCNC1CCN(C)CC1)C(=O)NC(c1ccccc1)c1ccccc1)C1CCCC1` [Example 147], the IC50 was determined as 0.354 µM.

For the compound `CCC(=O)N[C@@H](Cc1nc2ccc(C(F)(F)F)cc2o1)C(=O)N[C@H](C(=O)N[C@@H](CCCCN)C(=O)N[C@@H]1CCOc2ccccc21)C1CCOCC1` [Example 197], the IC50 came out at 0.102 µM.

For `CCC(=O)N[C@@H](Cc1ccc2ccccc2n1)C(=O)N[C@H](C(=O)N[C@@H](CCCCN)C(=O)NC(c1ccccc1)c1ccccc1)[C@@H](C)CC` [Example 130], the IC50 amounted to 2.37 µM.

Take `CCC(=O)N[C@@H](Cc1nc2ccc(C(C)C)cc2s1)C(=O)N[C@H](C(=O)N[C@@H](CCCCN)C(N)=O)C1CCCCC1` [Example 291]: the IC50 is 0.116 µM.

Regarding `CCC(=O)N[C@@H](Cc1nc2ccc(C(C)C)cc2s1)C(=O)N[C@H](CNS(=O)(=O)C1CCNCC1)C1CCCCC1` [DI-777], the IC50 was 0.0553 µM.

Values taken from patent US12012467B2, “Small molecule DCN1 inhibitors and therapeutic methods using the same” (THE REGENTS OF THE UNIVERSITY OF MICHIGAN, priority 2017, dated 2024).
